Measured values from patent publication US12692233B2, “Anthelmintic compounds comprising a pyridine structure” (Intervet Inc., priority 2020, dated 2026).

Tests used:
Ascaridia galli = assay: In vitro assay Ascaridia galli larval stage 3; format: cell-based; conditions: larval stage 3, 20 larvae per well, microscopic examination, read-out: MEC (minimum effective concentration) against Ascaridia galli L3
Description: (§1) […] galli (intestinal roundworm of chicken), larval stage 3 (“L3”); and Oesophagostumum dentatum (nodular worm of swine), larval stages 3 and 4 (respectively “L3” and “L4”) where suspended in a nutrient medium and distributed to 96 well plates with 20 larvae per well. The wells were spiked DMSO solutions of the compounds with declining concentration.

Haemonchus contortus = assay: In vitro assay Haemonchus contortus, motility of exsheathed L3 larvae; format: cell-based; conditions: 168 h, 7 days incubation, motility reduced by 50% with respect to positive control ivermectin, read-out: ED50 against Haemonchus contortus
Procedure: Solutions of compounds with declining concentrations in DMSO were prepared, diluted with nutrient medium and distributed to 96 well microtiterplates. […]3 larvae of Haemonchus contortus were incubated for 20 min at 37° C. in a water bath, separated by centrifugation and added to the wells with 300 Larvae/well. After incubation for 7 days motility was assessed by automated microscopy. Ivermectin was used as positive control, DMSO as negative control and ED50 values were calculated which represent the concentration for an individual compound that reduces motility by 50% with respect to the […].

Dirofilaria immitis = assay: In vitro assay Dirofilaria immitis L1 (microfilaria), motility; format: cell-based; conditions: 72 h, 3 days incubation, reduction in motility vs DMSO
Procedure: (§2) Approximately 500 D. immitis microfilaria were added to a microtiter plate containing a nutrient medium and the test compound in DMSO at varying concentrations. After incubation for 3 days, activity was evaluated as reduction in motility as compared to DMSO as negative control. Compounds were tested in duplicates. Based on the concentration response curves EC50 values were calculated.

[1] = biological target: T1, human Maxi K channel (BK channel) (Homo sapiens, UniProt Q12791); assay: Agonistic activity at the human Maxi K channel (BK channel), FLIPR membrane potential in CHO K1 cells; format: cell-based; conditions: CHO K1 cells stably transfected with KCNMA1 and beta1 (KCNMB1) subunits, membrane potential dye
T1 construct: expressed in transfected cells; host or cells: CHO K1
Description: A CHO K1 cell line was stably transfected with the KCNMA1 (KCa1.1, U11058) and beta1 (KCNMB1) subunits of the human Maxi K channel (Ponte et al, Molecular Pharmacology 2012, 81(4), 567-577).
The complete measurement takes 150 s.

C. elegans Slo-1a = C. elegans Slo-1a (Caenorhabditis elegans, UniProt Q95V25); assay: Agonistic activity at C. elegans Slo-1a, FLIPR membrane potential in CHO K1 cells; conditions: EC50 agonistic activity at C. elegans Slo-1a, CHO K1 cells stably transfected with slo-1a, membrane potential dye
Oesophagostumum dentatum [2] = assay: In vitro assay Oesophagostumum dentatum larval stage 3; format: cell-based; conditions: larval stage 3, 20 larvae per well, microscopic examination; read-out: MEC (minimum effective concentration) against Oesophagostumum dentatum L3
Description: as §1

Oesophagostumum dentatum [3] = assay: In vitro assay Oesophagostumum dentatum larval stage 4; format: cell-based; conditions: larval stage 4, 20 larvae per well, microscopic examination; read-out: MEC (minimum effective concentration) against Oesophagostumum dentatum L4
Description: as §1

Acanthocheilonema viteae = assay: In vitro assay Acanthocheilonema viteae L1 (microfilaria), motility; format: cell-based; conditions: 72 h, 3 days incubation, reduction in motility vs DMSO
Procedure: as §2, with “A. viteae” for “D. immitis”

Sequence of C. elegans Slo-1a (Q95V25 whole entry): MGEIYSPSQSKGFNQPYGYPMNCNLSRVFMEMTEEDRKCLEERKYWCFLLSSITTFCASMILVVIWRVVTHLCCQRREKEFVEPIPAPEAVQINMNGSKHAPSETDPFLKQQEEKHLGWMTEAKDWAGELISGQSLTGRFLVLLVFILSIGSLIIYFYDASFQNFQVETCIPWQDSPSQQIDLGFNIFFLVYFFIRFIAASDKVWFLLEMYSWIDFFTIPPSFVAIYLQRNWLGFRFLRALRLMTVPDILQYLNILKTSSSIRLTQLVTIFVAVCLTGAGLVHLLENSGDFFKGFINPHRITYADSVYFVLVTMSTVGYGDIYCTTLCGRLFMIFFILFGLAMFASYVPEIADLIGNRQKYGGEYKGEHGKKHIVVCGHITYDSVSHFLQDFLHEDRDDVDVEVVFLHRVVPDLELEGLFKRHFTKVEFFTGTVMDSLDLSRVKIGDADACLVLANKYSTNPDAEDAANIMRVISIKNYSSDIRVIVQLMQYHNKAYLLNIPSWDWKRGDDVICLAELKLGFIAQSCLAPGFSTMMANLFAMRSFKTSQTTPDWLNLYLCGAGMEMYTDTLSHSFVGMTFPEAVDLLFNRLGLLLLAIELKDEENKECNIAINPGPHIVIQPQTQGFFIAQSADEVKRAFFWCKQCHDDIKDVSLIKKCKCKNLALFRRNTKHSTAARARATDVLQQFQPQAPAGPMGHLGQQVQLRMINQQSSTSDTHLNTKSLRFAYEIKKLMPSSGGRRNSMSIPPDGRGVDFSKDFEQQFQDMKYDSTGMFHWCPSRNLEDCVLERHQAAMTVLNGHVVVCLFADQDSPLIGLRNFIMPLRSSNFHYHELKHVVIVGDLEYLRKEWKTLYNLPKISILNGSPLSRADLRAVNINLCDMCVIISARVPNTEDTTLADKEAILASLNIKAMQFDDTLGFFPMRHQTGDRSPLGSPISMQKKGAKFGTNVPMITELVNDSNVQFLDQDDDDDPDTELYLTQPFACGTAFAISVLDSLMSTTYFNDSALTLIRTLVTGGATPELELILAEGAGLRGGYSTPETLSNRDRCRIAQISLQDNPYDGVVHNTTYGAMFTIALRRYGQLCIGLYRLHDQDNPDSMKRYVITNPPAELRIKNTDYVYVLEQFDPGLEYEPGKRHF
T1 sequence (Q12791 1-1178 isoform Q12791-5): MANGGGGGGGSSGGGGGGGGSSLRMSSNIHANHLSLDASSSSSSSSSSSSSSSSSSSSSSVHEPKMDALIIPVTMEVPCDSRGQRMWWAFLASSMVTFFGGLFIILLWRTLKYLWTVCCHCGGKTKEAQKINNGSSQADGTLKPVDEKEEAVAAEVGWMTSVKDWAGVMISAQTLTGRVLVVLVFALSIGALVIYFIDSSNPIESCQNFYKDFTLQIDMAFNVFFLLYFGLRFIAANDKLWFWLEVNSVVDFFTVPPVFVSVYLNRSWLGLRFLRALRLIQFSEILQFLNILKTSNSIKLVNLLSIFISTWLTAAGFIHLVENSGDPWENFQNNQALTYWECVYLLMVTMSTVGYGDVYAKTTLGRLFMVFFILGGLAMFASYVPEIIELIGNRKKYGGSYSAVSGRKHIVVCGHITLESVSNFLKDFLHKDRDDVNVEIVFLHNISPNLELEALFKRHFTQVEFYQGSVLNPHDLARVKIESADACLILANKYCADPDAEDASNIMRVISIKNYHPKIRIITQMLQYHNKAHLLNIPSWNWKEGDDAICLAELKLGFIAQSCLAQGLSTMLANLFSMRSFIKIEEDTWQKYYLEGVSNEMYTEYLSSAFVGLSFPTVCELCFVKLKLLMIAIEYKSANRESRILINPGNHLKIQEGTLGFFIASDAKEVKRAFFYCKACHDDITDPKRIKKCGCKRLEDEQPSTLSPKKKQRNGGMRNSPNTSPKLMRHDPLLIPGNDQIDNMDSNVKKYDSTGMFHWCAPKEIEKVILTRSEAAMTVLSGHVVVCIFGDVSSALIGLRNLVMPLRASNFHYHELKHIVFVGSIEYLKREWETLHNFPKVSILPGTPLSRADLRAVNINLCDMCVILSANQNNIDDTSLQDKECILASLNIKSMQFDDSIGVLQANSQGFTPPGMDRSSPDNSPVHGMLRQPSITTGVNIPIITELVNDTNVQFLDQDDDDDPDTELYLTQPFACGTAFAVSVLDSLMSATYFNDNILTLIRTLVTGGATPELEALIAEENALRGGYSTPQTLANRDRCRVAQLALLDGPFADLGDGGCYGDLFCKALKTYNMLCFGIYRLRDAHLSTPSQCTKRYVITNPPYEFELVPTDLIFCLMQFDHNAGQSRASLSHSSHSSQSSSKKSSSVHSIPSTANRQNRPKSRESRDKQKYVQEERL
T1 sequence (Q16558 whole entry partner): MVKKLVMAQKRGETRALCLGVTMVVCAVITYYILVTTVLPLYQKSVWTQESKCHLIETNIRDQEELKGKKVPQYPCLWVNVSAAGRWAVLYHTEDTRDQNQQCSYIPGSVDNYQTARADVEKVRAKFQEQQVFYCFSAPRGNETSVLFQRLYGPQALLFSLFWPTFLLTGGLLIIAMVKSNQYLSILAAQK

| SMILES | EC50 [1] [µM] | EC50 (C. elegans Slo-1a) [µM] | minimal effective concentration (Ascaridia galli) [µM] | EC50 (Haemonchus contortus) [µM] | EC50 (Dirofilaria immitis) [µM] | minimal effective concentration (Oesophagostumum dentatum [2]) [µM] | minimal effective concentration (Oesophagostumum dentatum [3]) [µM] | EC50 (Acanthocheilonema viteae) [µM] |
| --- | --- | --- | --- | --- | --- | --- | --- | --- |
| CN(C)c1cc(Sc2cc(Cl)cc(Cl)c2)ncc1C(=O)N[C@@H]1CCOc2ccccc21 [Compound 18] | > 30 | – | ≤ 50 | < 50 | < 10 | – | – | – |
| O=C(N[C@H]1CCCc2ccccc21)c1cnc(Sc2cccc(Cl)c2Cl)cc1N1CCOCC1 [Compound 21] | > 30 | < 1 | – | < 50 | – | – | – | – |
| CN(C)c1cc(Oc2cccc(Cl)c2Cl)ncc1C(=O)Nc1cccc2ccccc12 [Compound 36] | > 30 | – | – | – | < 10 | ≤ 50 | ≤ 50 | < 10 |
| CN(C)c1cc(Sc2cccc(Cl)c2Cl)ncc1C(=O)N[C@@H]1CCOc2ccccc21 [Compound 39] | > 30 | – | – | – | < 10 | ≤ 50 | – | < 10 |
| O=C(Nc1csc2ccccc12)c1cnc(Oc2cccc(Cl)c2Cl)cc1N1CCOCC1 [Compound 46] | > 30 | – | – | – | < 10 | – | – | < 10 |
| CSc1cc(Sc2cccc(Cl)c2Cl)ncc1C(=O)N[C@H]1CCOc2ccccc21 [Compound 52] | > 30 | < 10 | ≤ 50 | < 50 | – | ≤ 50 | – | – |
| CSc1cc(Sc2cc(Cl)cc(Cl)c2)ncc1C(=O)N[C@@H]1CCOc2ccccc21 [Compound 55] | > 30 | – | – | < 50 | – | – | – | – |
| CCOc1cc(Sc2cccc(Cl)c2Cl)ncc1C(=O)N[C@H]1CCc2ccccc21 [Compound 72] | > 30 | < 10 | ≤ 50 | < 50 | < 10 | – | – | < 10 |
| CCSc1cc(Sc2cc(Cl)cc(Cl)c2)ncc1C(=O)N[C@H]1CCc2ccccc21 [Compound 73] | > 30 | – | – | < 50 | – | ≤ 50 | – | – |
| COc1cc(Sc2cc(Cl)cc(Cl)c2)ncc1C(=O)N[C@H]1CCCc2ccccc21 [Compound 82] | > 30 | < 10 | – | < 50 | < 10 | – | ≤ 50 | < 10 |
| COc1cc(Sc2cc(Cl)cc(Cl)c2)ncc1C(=O)N[C@H]1CCc2ccccc21 [Compound 84] | > 30 | < 10 | – | – | – | ≤ 50 | ≤ 50 | < 10 |
| COc1cc(Oc2cccc(Cl)c2Cl)ncc1C(=O)N[C@H]1CCc2ccccc21 [Compound 94] | > 30 | – | – | – | < 10 | – | – | < 10 |
| COc1cc(Oc2cccc(Cl)c2Cl)ncc1C(=O)N[C@H]1CCOc2ccccc21 [Compound 95] | > 30 | – | ≤ 50 | – | < 10 | – | – | < 10 |
| CCOc1cc(Sc2cc(Cl)cc(Cl)c2)ncc1C(=O)N[C@H]1CCc2ccccc21 [Compound 97] | > 30 | – | – | – | – | – | – | < 10 |

The next lines start with results.

| EC50 [1] [µM] | EC50 (C. elegans Slo-1a) [µM] | SMILES | minimal effective concentration (Ascaridia galli) [µM] | EC50 (Haemonchus contortus) [µM] | EC50 (Dirofilaria immitis) [µM] | minimal effective concentration (Oesophagostumum dentatum [2]) [µM] | minimal effective concentration (Oesophagostumum dentatum [3]) [µM] | EC50 (Acanthocheilonema viteae) [µM] |
| --- | --- | --- | --- | --- | --- | --- | --- | --- |
| > 30 | < 1 | CN(C)c1cc(Oc2cccc(Cl)c2Cl)ncc1C(=O)N[C@H]1CCCc2ccccc21 [Compound 34] | – | < 50 | – | – | – | – |
| > 30 | < 1 | CN(C)c1cc(Oc2cccc(Cl)c2Cl)ncc1C(=O)N[C@H]1CCc2ccccc21 [Compound 35] | – | < 50 | – | – | – | – |
| > 30 | – | CN(C)c1cc(Oc2cccc(Cl)c2Cl)ncc1C(=O)Nc1csc2ccccc12 [Compound 37] | ≤ 50 | – | – | – | ≤ 50 | < 10 |
| > 30 | – | CSc1cc(Oc2cccc(Cl)c2Cl)ncc1C(=O)N[C@H]1CCOc2ccccc21 [Compound 57] | ≤ 50 | – | – | – | – | < 10 |
| > 30 | < 10 | COc1cc(Sc2cccc(Cl)c2Cl)ncc1C(=O)N[C@H]1CCc2ccccc21 [Compound 67] | ≤ 50 | – | – | – | ≤ 50 | < 10 |
| > 30 | – | CCOc1cc(Oc2cc(Cl)cc(Cl)c2)ncc1C(=O)N[C@H]1CCc2ccccc21 [Compound 90] | ≤ 50 | – | – | ≤ 50 | – | < 10 |
